Measured values taken from US4684625A, “Method for enhancing the anti-infective activity of muramyldipeptide derivatives” (Syntex (U.S.A.) Inc., priority 1985, dated 1987).
Values joined by “and” are separate entries in the source; they are usually repeats but may differ in a detail not shown here. Identical values can stand only once.

Columns and labels:
Candida albicans [1] = assay: Survival of mice treated with abu-MDP at 96 and 48 hr prior to challenge with Candida albicans (Example 1, Table I); type: in vivo; conditions: for Survival No. (%) / Survival Time: no MLV, days 4 and 2 before infection; for Survival No. (%): third set of rows (saline control 0%); for Survival Time: third set of rows (saline control 3.6 days)
Experimental: Multilamellar vesicles (MLVs) were formed by drying down egg phosphatidylcholine and brain phosphatidylserine (7:3 molar ratio) on the inside of a flask. Phosphate-buffered saline lacking divalent cations (PBS) was added (1 ml per 20 micromoles phospholipid), and the flask shaken, either by hand or with a mechanical shaker, until the lipid film was dispersed. When N-acetylmuramyl-L-α-aminobutyryl-D-isoglutamine (abu-MDP) was to be encapsulated, it was included in the aqueous solution before addition to the lipid film. The vesicles formed as the result of shaking the aqueous solution which contained MDP derivative were washed to remove unencapsulated MDP derivative, pelleted by centrifugation at 30,000×g for 20-30 min, and then resuspended in PBS. MLV preparations made without MDP derivative were either pelleted and resuspended as described, or were used without further treatment.
(§1) Mice were injected intravenously with liposomes (4 micromoles phospholipid)and also with free abu-MDP (2-4 mg/kg). The abu-MDP was injected at the same time as the liposome injection. Injections were made at 96 and 48 hr prior to challenge with Candida albicans (5×10^6 cells injected intravenously). Control mice were treated with either liposomes only, or abu-MDP only (4 or 60 mg/kg), or abu-MDP (2-4 mg/kg) encapsulated in liposomes, and similarly challenged with Candida albicans. Each treatment group contained 20 mice. All mice were monitored daily for number of survivors. Statistical analysis of survival time was computed using Mann Whitney U probability analysis, and the numbers of survivors were statistically compared using Fisher Exact probability analysis.
P values, calculated for survival time and number of survivors at the time when controls (treated only with MLV or with saline) first reached 100% dead, were all less than 0.03. By comparison, the treatments with the same concentration of abu-MDP alone were ineffective (P≥0.05).

Candida albicans [2] = assay: Survival of mice given a single abu-MDP treatment 72 hr prior to challenge with Candida albicans (Example 2, Table II); type: in vivo; conditions: one treatment at day 3 before infection
Experimental: as §1
A second experiment was performed by the method described in Example 1, except that the mice were given a single pre-infection treatment at 72 hr prior to challenge, instead of treatments at 96 and 48 hr prior to challenge as in Example 1.

[3] = Radioactivity of 3H-desMDP in liposome fraction and aqueous supernatant after mixing with pre-formed MLVs (Example 3, Table III); type: physicochemical
Experimental: MLVs were prepared as described above, hydrating the dried lipid film with PBS. These pre-formed liposomes were then mixed with unencapsulated MDP compound spiked with tritiated N-acetyldesmethylmuramyl-L-alanyl-D-isoglutamine (^3 H-desMDP). The liposome/MDP derivative mixture was washed and pelleted, and the final liposome pellet resuspended in PBS. The radioactivity in the liposome fraction was determined, as well as the radioactivity in the aqueous supernatant from the washing and pelleting steps. […] Thus, MDP compounds are not incorporated into or attached to liposomes in the practice of the invention.

| Substance | protective activity against Candida albicans (Candida albicans [1]; abu-MDP alone at the same concentration as used with MLV (P≥0.05)) | Survival No. (%) (Candida albicans [1]; free abu-MDP 4 mg/kg) | Survival Time (Candida albicans [1]; free abu-MDP 4 mg/kg) [days] | Survival No. (%) (Candida albicans [1]; free abu-MDP 60 mg/kg) | Survival Time (Candida albicans [1]; free abu-MDP 60 mg/kg) [days] | protective activity against Candida albicans (Candida albicans [1]; free abu-MDP alone raised to 60 mg/kg) | Survival No. (%) (Candida albicans [2]; abu-MDP 4 mg/kg) | Survival Time (Candida albicans [2]; abu-MDP 4 mg/kg) [days] | Survival No. (%) (Candida albicans [2]; free abu-MDP 60 mg/kg) | Survival Time (Candida albicans [2]; free abu-MDP 60 mg/kg) [days] | cpm/0.1 ml ([3]; aqueous fraction (supernatant from washing and pelleting)) | % of Total ([3]; aqueous fraction (supernatant)) [%] | % of Total ([3]; liposome fraction) [%] | cpm/0.1 ml ([3]; liposome fraction (final pellet resuspended in PBS)) |
| --- | --- | --- | --- | --- | --- | --- | --- | --- | --- | --- | --- | --- | --- | --- |
| N-acetylmuramyl-L-α-aminobutyryl-D-isoglutamine [abu-MDP] | ineffective | 0 | 4.4 | 45 | 6.9 | protective activity obtained equivalent to that seen using the lower dose of abu-MDP (2-4 mg/kg) plus MLV | 0 | 5.2 | 32 | 6.4 |  |  |  |  |
| tritiated N-acetyldesmethylmuramyl-L-alanyl-D-isoglutamine [^3 H-desMDP] |  |  |  |  |  |  |  |  |  |  | 557,610 cpm/0.1 ml and 562,800 cpm/0.1 ml | ~100 | 0.2 | 1,462 cpm/0.1 ml and 1,304 cpm/0.1 ml |
